Experimental data from US12655104B2, “Anticancer compounds selective for ER-positive cancers” (THE BOARD OF TRUSTEES OF THE UNIVERSITY OF ILLINOIS, priority 2020, dated 2026).
Like-named read-outs stand apart in the source and are kept apart here.

Assays:
[1] = Simulated gastric fluid (SGF) stability assay; assay type: in vitro ADME
Procedure: Simulated Gastric Fluid (SGF) Stability Assay. SGF was prepared fresh by adding 3.2 g pepsin (Sigma Aldrich P7000) to 1000 mL of SGF (Fischer Scientific 7108-16) and the pH adjusted to 1.2 using a pH meter. This SGFwith pepsin solution was then warmed to 37° C. 990 μL of warmed SGFwith pepsin was then aliquoted into multiple Eppendorf tubes, followed by 10 μL of 10 mM DMSO stock solutions of test compounds. Erythromycin (MedChemExpress HY-B0220) is a positive control for this stability assay. Samples were incubated at 37° C. for the entire experiment with vortexing every 15 minutes. At each desired time point (0, 15, 30, 60, 120 minutes), a 100 μL aliquot is removed and quenched into 50 μL of acetonitrile. Samples are stored at 4° C. until all time points are complete. Samples were then vortexed and then clarified at 3,000 RPM for 10 minutes in a 4° C. centrifuge. Supernatants were collected and compound concentrations determined by LC-MS/MS (UIUC Metabolomics Center, Urbana, IL.). Determined compound concentrations were used to calculate percent remaining compared to t=0 samples.

MCF-7 tumors = experiment: MCF-7 orthotopic tumor model; assay type: in vivo, mice; conditions: I.V. 5 mg/kg once-a-week, three total doses
Procedure: MCF-7 Orthotopic Tumor Model. Nu/J ovariectomized mice (Jackson's lab) were supplemented with a 60-day E2 pellet (0.36 mg, Innovative Research of America) 2-3 days prior to tumor cell inoculation. MCF-7 cells (5×10^6, in 1:1 HBSS:matrigel) were inoculated into the mammary fat pad and allowed to establish and tumors grown to ˜300-400 mm^3 (˜21-28 days to establish). […] Tumor size was measured by caliper, and mouse weights were recorded.

HT-29 = experiment: Alamar blue fluorescence viability (IC50), HT-29; assay type: cell-based; conditions: Homo sapiens, HT-29, ERα negative
Procedure: (§1) Cancer Cell Lines: Culturing Conditions and Validation. All cell lines were cultured at 37° C. with 5% CO2. All ERα-positive cell lines were grown in media lacking phenol red. MCF-7 were grown in EMEM with 10% FBS and 1% penicillin-streptomycin (P/S). T47D were cultured in MEM with 10% FBS and 1% P/S. TYS and TDG cells were grown in MEM supplemented with 10% CD-FBS and 1% P/S. HCT-116 and MDA-MB-231 cells were cultured in RPMI-1640 supplemented with 10% FBS and 1% P/S. MDA-MB-436 cells were cultured in DMEM supplemented with 10% FBS and 1% P/S. HT-29 were cultured in McCoy's media supplemented with 10% FBS and 1% P/S. All cell lines were used directly from ATCC stocks and/or have been further authenticated using PowerPlex16HS Assay (Promega) as described previously.^54 In short, >1 million cells were harvested and lysed using the cell lysis buffer (50 mM Tris, 50 mM EDTA, 25 mM sucrose, 100 mM NaCl, 1% SDS, pH 8). DNA extraction and short tandem repeats (STRs) profiling for each cell line were carried out at the University of Arizona Genetics Core (UAGC). Autosomal STR profiles were compared to reference databases such as ATCC, DSMZ, and JCRB.
(§2) Alamar Blue Fluorescence for Anticancer Activity (IC50). 2,000-15,000 cells per well were seeded a 96-well plate. Cells were allowed to adhere before DMSO stock solutions of test compounds were added to each well with a final concentration of DMSO in each well=1%; final volume: 100 μL. At the end of the desired incubation time (e.g., 24 or 72 hours), media in each well was aspirated and new fresh media (no compound, 100 μL) was added. Alamar blue solution (4 mg resazurin per 40 mL PBS) was then added (10 μL). After 2-6 hours incubation, each well's fluorescence (λexcit.=555 nm, λemission.=585 nm) was measured using a SpectraMax M3 plate reader (Molecular Devices). Percent dead was determined by comparison to a 100% dead control: 100 μM raptinal treated cells. Dose dependent curves and IC50 were calculated using Origin Pro V10.

T47D-ERαD538G (TDG) = experiment: Alamar blue fluorescence viability (IC50), TDG; assay type: cell-based; conditions: TDG, ERα positive, 24 hr; read-out: IC50 24 hr
Procedure: as §1, with “DNA extraction and short tandem repeats (STRs) profiling for each cell line were carried out at the University of Arizona Genetics Core (UAGC). Autosomal STR profiles were compared to reference databases such as ATCC, DSMZ, and JCRB.” left out
(§3) Alamar Blue Fluorescence for Anticancer Activity (IC50). […] After 2-6 hours incubation, each well's fluorescence (λexcit.=555 nm, λemission.=585 nm) was measured using a SpectraMax M3 plate reader (Molecular Devices). Percent dead was determined by comparison to a 100% dead control: 100 μM raptinal treated cells. Dose dependent curves and IC50 were calculated using Origin Pro V10.

[2] = Pharmacokinetic (PK) studies in mice; assay type: in vivo
Procedure: Pharmacokinetic (PK) Studies. […] Mice were then sacrificed in cohorts of 3 at time points (#, #, #). Blood was collected, centrifuged, and plasma separated for quantification of test compound utilizing LC-MS/MS (UIUC Metabolomics Center, Urbana, IL.). Determined compound concentration was then analyzed using non-linear regression programing (WinNonlin) and pharmacokinetic parameters estimated.

canines = conditions: cited from earlier work
MCF-7 cells = experiment: Alamar blue fluorescence viability (IC50), MCF-7; assay type: cell-based; conditions: Homo sapiens, MCF7
Procedure: as §1, §2

MDA-MB-231 = experiment: Alamar blue fluorescence viability (IC50), MDA-MB-231; assay type: cell-based; conditions: Homo sapiens, MDA-MB-231, ERα negative
Procedure: as §1, §2

T47D = experiment: Alamar blue fluorescence viability (IC50), T47D; assay type: cell-based; conditions: Homo sapiens, 24 h, read-out: IC50 24 hr (μM)
Procedure: as §1, with “DNA extraction and short tandem repeats (STRs) profiling for each cell line were carried out at the University of Arizona Genetics Core (UAGC). Autosomal STR profiles were compared to reference databases such as ATCC, DSMZ, and JCRB.” left out
as §3

HCT-116 = experiment: Alamar blue fluorescence viability (IC50), HCT-116; assay type: cell-based; conditions: for IC50: Homo sapiens, HCT-116, ERα negative
Procedure: as §1, §2

[3] = Maximum tolerated dose (MTD) in mice; assay type: in vivo; conditions: female, CD-1, mouse, in vivo, iv
Source text: (§4) Maximum Tolerated Dose (MTD) Experiments in Mice and Rats. […] Rodents were monitored for signs of distress, lethargy, neurotoxicity, and so forth for multiple days after compound administration. […] The MTD was defined as the maximum dose in which any acute side effects observed were tolerated and no lethality observed.

T47D-ERaY537S (TYS) = experiment: Alamar blue fluorescence viability (IC50), TYS; assay type: cell-based; conditions: 24 h, read-out: IC50 24 hr (μM)
Procedure: as §1, with “DNA extraction and short tandem repeats (STRs) profiling for each cell line were carried out at the University of Arizona Genetics Core (UAGC). Autosomal STR profiles were compared to reference databases such as ATCC, DSMZ, and JCRB.” left out
as §3

MDA-MB-436 = experiment: Alamar blue fluorescence viability (IC50), MDA-MB-436; assay type: cell-based; conditions: Homo sapiens
Procedure: as §1, §2

[4] = Maximum tolerated dose (MTD) in rats; assay type: in vivo; conditions: Sprague Dawley, rat, in vivo, iv
Source text: as §4

[5] = In vitro metabolite assessment of ErSO; assay type: in vitro ADME
CD-1 mice = experiment: Maximum tolerated dose (MTD) in mice; assay type: in vivo; conditions: mouse, in vivo, iv
Source text: as §4

[6] = tested on: CD Sprague Dawley IGS rats; experiment: Maximum tolerated dose (MTD) in rats; assay type: in vivo; conditions: rat, in vivo
Source text: as §4

[7] = female, CD-1, mouse, plasma, iv, I.V. 20 mg/kg
[8] = MCF-7 cells, 24 hours, Alamar blue, mean ± s.e.m., read-out: IC50

O=C1Nc2c(C(F)(F)F)cccc2[C@@]1(c1ccc(O)cc1)c1ccc(OC(F)(F)F)cc1 [ErSO, (R)-3-(4-hydroxyphenyl)-3-(4-(trifluoromethoxy)phenyl)-7-(trifluoromethyl)indolin-2-one, reference compound]
% Remaining after 120 min (SD) ([1]; 100 μM in SGF with pepsin, 120 min): 93±1%
half-life at 100 μM ([1]; simulated gastric fluid with pepsin, pH 1.2, SGF with pepsin, read-out: half-life in SGF): > 2 h
mouse weight change during MCF-7 study (MCF-7 tumors): no significant weight change
IC50 (HT-29; 24 hr, read-out: IC50 24 hr): 210 ± 60 nM
IC50 (HT-29; 72 hr, read-out: IC50 72 hr): 250 ± 70 nM
IC50 (T47D-ERαD538G (TDG)): 15 ± 1 nM
CL ([2]; I.V. 20 mg/kg): 33 mL/min/kg
AUC [2, 7]: 10100 ng·h/mL
Cmax [2, 7]: 7710 ng/mL
Vd ([2]; female, CD-1, mouse, plasma, iv, I.V. 20 mg/kg, read-out: Vss): 10.2 L/kg
bioavailability ([2]; female, CD-1, mouse, plasma, po, read-out: oral availability F %): 47%
tolerated oral dose (canines): greater than 150 mg/kg
IC50 (MCF-7 cells; MCF-7, ERα positive, 24 hr, read-out: IC50 24 hr): 20 ± 2 nM
IC50 (MCF-7 cells; MCF-7, ERα positive, 72 hr, read-out: IC50 72 hr): 14 ± 1 nM
IC50 (MCF-7 cells; [8]): 20 nM
IC50 (MDA-MB-231; 24 hr, read-out: IC50 24 hr): 23000 ± 3000 nM
IC50 (MDA-MB-231; 72 hr, read-out: IC50 72 hr): 8000 ± 1000 nM
IC50 (T47D): 0.02 ± 0.001 µM
effects bottom out at (% cell death at lower concentrations) (HCT-116; HCT-116 cells, bottom of IC50 curve): ~38%
IC50 (HCT-116; 24 hr, read-out: IC50 24 hr): 11000 nM
IC50 (HCT-116; 72 hr, read-out: IC50 72 hr): 260 nM
MTD [3]: 20 mg/kg
IC50 (T47D-ERaY537S (TYS)): 0.01 ± 0.001 µM
IC50 (MDA-MB-436; MDA-MB-436, 24 h, read-out: IC50 24 hr (μM)): 22 ± 1 µM
IC50 (MDA-MB-436; MDA-MB-436, 72 h, read-out: IC50 72 hr (μM)): 14 ± 1 µM
MTD [4]: 10 to 15 mg/kg

O=C1Nc2c(C(F)(F)F)cccc2[C@]1(c1ccc(OC(F)(F)F)cc1)c1ccc(O)c(O)c1 [ErSO-OH, (S)-3-(3,4-dihydroxyphenyl)-3-(4-(trifluoromethoxy)phenyl)-7-(trifluoromethyl)indolin-2-one]
IC50 (MCF-7 cells; [8]): 24 nM
abundance as metabolite of ErSO [5]: < 1%
intravenous tolerability in mice (in words) (CD-1 mice): greater intravenous tolerability in mice
rat tolerability (in words) [6]: no gains in rat tolerability
